Experimental data taken from article PMC12603070, “A high-throughput screening approach to discover potential colorectal cancer chemotherapeutics: repurposing drugs to identify novel disruptors of 14-3-3 proteins” (Cell Death & Disease, 2025).
Counter-ions that a name gives are not always drawn. Like-named read-outs stand apart in the source and are kept apart here. Numbered stars: 1 amine (or outer) side, 2 acyl side, 3 side chain; on linkers, the order of the positions; unused ones are H or OH. Bridge positions count the residues as written; N and C are the ends. Square brackets hold non-standard residues; d marks the D form. Peptide text beside a SMILES is read from it. * marks the point of attachment. pTerphenylCO(4''-OnC5H11) = CCCCCOc1ccc(-c2ccc(-c3ccc(C(=O)*)cc3)cc2)cc1; Orn(4R-OH,5R-OH) = O=C([C@H](C[C@@H](O)[C@@H](O)N[*:3])N[*:1])[*:2]; hTyr(3S-OH,4S-OH) = N[C@H](C(=O)O)[C@H](O)[C@@H](O)c1ccc(O)cc1; Pro(3S-OH,4S-Me) = C[C@H]1CN[C@H](C(=O)O)[C@H]1O; Hyp = O=C(O)[C@@H]1C[C@@H](O)CN1

What was measured:
Caco-2 cells = type: cell-based; settings: for Percentage of cell death % 24h CACO-2: 20 µM; for Percentage of cell death % 48h, Caco-2: 20 μM
Text: (§1) A high-content imaging system (PerkinElmer; Operetta CLS), was used to quantify cell death and apoptosis by calculating the number of propidium iodide-positive cells relative to Hoechst-positive cells, and the number of Annexin V-positive cells relative to Hoechst-positive cells, respectively.

NIH-3T3 cells = test: Hoechst/propidium iodide cell death assay in NIH-3T3; type: cell-based; settings: for cytotoxicity at 20 µM: Mus musculus, NIH3T3, 24 h, read-out: Percentage of cell death % 24h NIH3t3
Text: as §1

HT-29 cells = test: Hoechst/propidium iodide cell death assay in HT-29; type: cell-based, human; settings: for cytotoxicity at 20 µM: Homo sapiens; for %Cell death HT-29: time not given
Text: as §1

[1] = target: T1, 14-3-3ζ:BAD-112-136F interactions (Homo sapiens, UniProt P63104); test: BRET sensor screen for disruption of 14-3-3ζ-Rluc8:BAD-112-136F-mCitrine in living NIH-3T3 cells; type: cell-based, murine; set-up: inhibition: dose or concentration left out as unconfirmed; BRET reduction on NIH-3T3: unit not given here; settings: for inhibition / inhibition at 20 µM: NIH3T3, 3 h, read-out: BRET reduction on NIH-3T3
T1 construct: expressed in transfected cells; host or cells: NIH-3T3 fibroblasts, bi-directional pBI-CMV1 plasmid
T1 sequence (P63104 1-245): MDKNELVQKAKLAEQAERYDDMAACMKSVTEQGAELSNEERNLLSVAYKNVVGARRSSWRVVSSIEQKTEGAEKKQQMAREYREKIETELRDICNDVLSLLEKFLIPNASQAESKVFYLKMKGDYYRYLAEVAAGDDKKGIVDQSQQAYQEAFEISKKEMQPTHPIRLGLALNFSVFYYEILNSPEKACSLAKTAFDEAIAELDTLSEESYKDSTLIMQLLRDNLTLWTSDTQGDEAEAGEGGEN
Outline: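 NIH-3T3 cells were transfected with the BRET sensor two days beforehand, then replated on poly-L-ornithine-coated plates and grown 24 h at 37 °C. Medium was then replaced with Krebs buffer (pH 7.4). Z′-score was calculated to judge HTS robustness.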

[2] = HT-29, 24 h, 20 µM, 24 h, read-out: Percentage of cell death % 24h HT-29
[3] = HT-29, 48 h, HT-29, 48h, 20 μM, read-out: Percentage of cell death % 48h, HT-29
[4] = NIH-3T3 cells, hits from the primary screen
[5] = NIH-3T3 expressing BRET sensor, 20 µM, 3 h
[6] = HT-29, 24 h, read-out: Percentage of cell death % 24h HT-29
[7] = HT-29, 48 h, read-out: Percentage of cell death % 48h, HT-29

Structure (SMILES) | Percentage of cell death % 24h CACO-2 (Caco-2 cells) | Percentage of cell death % 48h, Caco-2 (Caco-2 cells) | cytotoxicity at 20 µM (NIH-3T3 cells; 20 µM, 24 h) | Percentage of cell death % 48h, NIH3T3 (NIH-3T3 cells) | cytotoxicity at 20 µM (HT-29 cells; [2]) | cytotoxicity at 20 µM (HT-29 cells; [3]) | inhibition [1, 4] | inhibition at 20 µM [1, 5] | %Cell death Caco-2 (Caco-2 cells) | %Cell death HT-29 (HT-29 cells; HT-29) | %Cell death Caco-2 (Caco-2 cells; time not given, text says 48 h) | Percentage of cell death % 24h HT-29 (HT-29 cells; 20 µM, 24 h) | cytotoxicity at 20 µM (NIH-3T3 cells) | cytotoxicity at 20 µM (HT-29 cells; [6]) | cytotoxicity at 20 µM (HT-29 cells; [7]) | inhibition at 20 µM [1] | BRET reduction on NIH-3T3 [1, 4] | Percentage of cell death % 24h NIH3t3 (NIH-3T3 cells; 20 µM, 24 h) | Percentage of cell death % 48h, HT-29 (HT-29 cells; HT-29, 48h, 20 μM) | BRET reduction on NIH-3T3 [1, 5]
C=CCc1ccc(O)c(-c2ccc(O)c(CC=C)c2)c1 [Honokiol] | 22.4688% | 15.5538% | 27.4% | 11.7537% | 8.61% | 11.1% | 34.2% | 34.2% |  |  |  |  |  |  |  |  |  |  |  | 
CO/N=C1\C[C@]2(C[C@@H]3C[C@@H](C/C=C(\C)C[C@@H](C)/C=C/C=C4\CO[C@@H]5[C@H](O)C(C)=C[C@@H](C(=O)O3)[C@]45O)O2)O[C@H](/C(C)=C/C(C)C)[C@H]1C [Moxidectin] |  |  | 80.7% | 68.7026% | 8.61% | 78.4% | 44% | 44% | 8.4% | 78.4% |  |  |  |  |  |  |  |  |  | 
C[C@@H](NCCCc1cccc(C(F)(F)F)c1)c1cccc2ccccc12 [Cinacalcet] | 40.5775% | 49.3803% | 75.5% | 90.5083% | 30% | 70.3% | 47.7% | 47.7% |  | 70.3% | 49.4% |  |  |  |  |  |  |  |  | 
CCCCc1oc2ccc(NS(C)(=O)=O)cc2c1C(=O)c1ccc(OCCCN(CCCC)CCCC)cc1 [Dronedarone] | 69.9639% | 86.906% | 88.3% | 83.8385% |  | 79% | 50.4% | 50.4% |  | 79.0% | 86.9% | 52.4326% |  |  |  |  |  |  |  | 
CCCCCCCCCCCC1=C(O)C(=O)C=C(O)C1=O [Embelin] |  |  | 69.5% | 37.4899% | 19% | 51.8% | 37% | 37% | 1.7% | 51.8% |  |  |  |  |  |  |  |  |  | 
O=C1Nc2ccc(Cl)cc2[C@@](C#CC2CC2)(C(F)(F)F)O1 [Efavirenz] |  |  | 41.4% | 7.6471% | 18.5% | 22% | 30.3% | 30.3% | 20.5% | 22.0% |  |  |  |  |  |  |  |  |  | 
CCCCCCCCCCCCCCCC[N+](C)(C)C [Cetrimonium Bromide (CTAB), Cetrimonium Bromide] | 19.5542% | 50.4821% |  | 66.4515% |  |  |  |  |  |  |  |  | 73.5% | 11.5% | 55.4% | 35.4% | 35.3912 |  |  | 
OC(CNCC(O)C1CCc2cc(F)ccc2O1)C1CCc2cc(F)ccc2O1 (stereo not shown) [Nebivolol] |  |  | 64.6% | 64.5697% | 9.8% | 67.3% | 34.7% | 34.7% | 45.0% | 67.3% |  |  |  |  |  |  |  |  |  | 
Oc1cc(Cl)ccc1Oc1ccc(Cl)cc1Cl [Triclosan] | 23.0449% | 14.8508% |  | 20.8092% |  |  |  |  |  |  |  |  | 58.2% | 20.3% | 21.6% | 35.6% | 35.6098 |  |  | 
CC(C)Oc1ccc(-c2nc(-c3cccc4c3CC[C@@H]4NCCO)no2)cc1C#N [Ozanimod (RPC1063), Ozanimod] | 10.8525% | 17.0415% | 89.9% | 87.9452% | 1.29% | 3.92% | 29.4% | 29.4% |  |  |  |  |  |  |  |  |  |  |  | 
CC(C)(C)c1cc(C(C)(C)C)c(NC(=O)c2c[nH]c3ccccc3c2=O)cc1O [Ivacaftor (VX-770), Ivacaftor] | 14.0443% | 14.6425% | 7.87% | 12.0089% | 9.35% | 60.7% | 39% | 39% |  |  |  |  |  |  |  |  |  |  |  | 
C[C@@H](NCCCc1cccc(C(F)(F)F)c1)c1cccc2ccccc12 [Cinacalcet HCl] | 64.4357% | 76.6269% |  | 69.2945% |  |  |  |  |  |  |  | 35.6614% |  |  |  |  | 50.3473 | 81.0537% | 79.6038% | 50.3473
CCCCc1oc2ccc(NS(C)(=O)=O)cc2c1C(=O)c1ccc(OCCCN(CCCC)CCCC)cc1 [Dronedarone HCl] | 77.641% | 87.4152% |  | 84.99% |  |  |  |  |  |  |  | 82.9811% |  |  |  |  | 49.6356 | 85.6589% | 91.5188% | 49.6356
C=CCc1ccc(O)c(-c2cc(CC=C)ccc2O)c1 [Magnolol] | 16.7853% | 10.8986% |  | 6.55% |  |  |  |  |  |  |  |  | 15.7% | 15.8% | 20.3% | 33.2% | 33.2336 |  |  | 
CCCCCOc1ccc(-c2ccc(-c3ccc(C(=O)N[C@H]4C[C@@H](O)[C@@H](O)NC(=O)[C@@H]5[C@@H](O)[C@@H](C)CN5C(=O)[C@H]([C@@H](C)O)NC(=O)[C@H]([C@H](O)[C@@H](O)c5ccc(O)cc5)NC(=O)[C@@H]5C[C@@H](O)CN5C(=O)[C@H]([C@@H](C)O)NC4=O)cc3)cc2)cc1 [Anidulafungin] ({pTerphenylCO(4''-OnC5H11)}-[Orn(4R-OH,5R-OH)]T[Hyp][hTyr(3S-OH,4S-OH)]T[Pro(3S-OH,4S-Me)]; lactam 1-C) | 1.705% | 1.424% |  | 12.0742% |  |  |  |  |  |  |  |  | 33.6% | 4.73% | 7.05% | 27% | 27.0241 |  |  | 
